According to paper PMC7961048, “Hierarchized phosphotarget binding by the seven human 14-3-3 isoforms” (Nature Communications, 2021):
Like-named read-outs stand apart in the source and are kept apart here. Starred links: 1 amine or outer side, 2 acyl side, 3 side chain; linkers in the order of their positions; H or OH if unused. Non-standard residues stand in square brackets, D forms with d. Residues, ends and D or L forms follow the SMILES beside them. *: point of attachment. X1 = O=C(CCCC[C@@H]1SC[C@@H]2NC(=O)N[C@@H]21)NCCCOCCOCCOCCCN*; pT = C[C@@H](OP(=O)(O)O)[C@H](N)C(=O)O; Suc = O=C(CCC(=O)[*:2])[*:1]

How the values were obtained:
14-3-3 isoforms = details: Figure 4 panel a, literature-curated motifs, unit from the colour scale line, cited from earlier work
14-3-3β = biological target: T1, 14-3-3β (Homo sapiens, UniProt P31946); test: biochemical; format: binding
T1 construct: cDNAs encoding other full-length 14-3-3 isoforms β, τ, η, and σ were obtained as codon-optimized; made in house; host or cells: E. coli BL21(DE3)
T1 sequence (P31946 1-246): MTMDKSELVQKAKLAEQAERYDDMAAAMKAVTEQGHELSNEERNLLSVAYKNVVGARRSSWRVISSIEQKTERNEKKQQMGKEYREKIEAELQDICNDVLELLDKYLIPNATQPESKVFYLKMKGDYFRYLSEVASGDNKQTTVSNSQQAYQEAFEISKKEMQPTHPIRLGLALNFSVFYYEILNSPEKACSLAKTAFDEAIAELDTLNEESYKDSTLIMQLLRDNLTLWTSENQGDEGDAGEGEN
Procedure: (§1) The seven full-length human 14-3-3 isoforms, produced as fusions to a maltose-binding protein (MBP), were analyzed for their interaction with four phospho-PBMs from E6 proteins of HPV types 16, 18, 33, and 35 belonging to subgroups 1 and 2 (as defined in Supplementary Fig. 1). For comparison, we also measured two non-viral phospho-PBMs originating from protein kinase RSK1[28]. We used a competitive fluorescence polarization (FP) assay that measures the displacement of a fluorescent tracer phosphopeptide (here, derived from the HSPB6 protein) bound beforehand to 14-3-3, by an increasing amount of the peptide of interest.
(§2) For affinity measurements, full-length human 14-3-3 constructs with an N-terminal MBP fusion were used. Plasmids containing the cDNAs of the full-length 14-3-3 isoforms ε, γ, and ζ were received from Prof. Lawrence Banks. cDNAs encoding other full-length 14-3-3 isoforms β, τ, η, and σ were obtained as codon-optimized for E. coli expression synthetic genes from IDT Technologies (Coralville, Iowa, USA). All 14-3-3 isoforms were fused via a three-alanine linker to the C terminus of a mutant MBP carrying the following amino acid substitutions facilitating crystallization: D83A, K84A, K240A, E360A, K363A, and D364A[62]. All resulting clones were verified by sequencing. The MBP-fused proteins were expressed in E. coli BL21(DE3) with IPTG induction. Proteins were affinity purified on an amylose column and were further purified by ion-exchange chromatography (HiTrap Q HP, GE Healthcare). Unfused 14-3-3 isoforms devoid of the flexible C-terminal tails (14-3-3βΔC, 14-3-3τΔC 14-3-3εΔC) were expressed using IPTG induction and purified by subtractive IMAC and SEC[40]. Protein concentrations were determined by UV spectroscopy. The samples were supplemented with glycerol and TCEP before aliquoting and freezing in liquid nitrogen.
(§3) Unless otherwise stated, all phosphopeptide-binding measurements were performed using full-length 14-3-3 proteins fused to the C terminus of MBP, favoring optimal solubility and a standardized parallel purification scheme.
(§4) FP was measured with a PHERAstar (BMG Labtech, Offenburg, Germany) microplate reader by using 485 ± 20 and 528 ± 20 nm band-pass filters (for excitation and emission, respectively). In direct FP measurements, a dilution series of the 14-3-3 protein was prepared in 96-well plates (96-well skirted PCR plate, 4ti-0740, 4titude, Wotton, UK) in a 20 mM HEPES pH 7.5 buffer containing 150 mM NaCl, 0.5 mM TCEP, 0.01% Tween 20, 50 nM fluorescently labeled fpB6 peptide, and 100 μM FSC, if indicated. The volume of the dilution series was 40 μl, which was later divided into three technical replicates of 10 μl upon transferring to 384-well micro-plates (low binding microplate, 384 well, E18063G5, Greiner Bio-One, Kremsmünster, Austria). In total, polarization of the probe was measured at eight different protein concentrations (whereas one contained no protein and corresponded to the free peptide). In competitive FP measurements, the same buffer was supplemented with the protein to achieve a complex formation of 60–80%, based on the direct titration. Then, this mixture was used for creating a dilution series of the unlabeled competitor (i.e., the studied peptides) and the measurement was carried out identically as in the direct experiment.
(§5) All FP experiments were done in triplicates. Analysis of FP experiments were carried out using ProFit, an in-house developed, Python-based fitting program. ProFit utilizes a Monte Carlo approach to take into account experimental variability. It generates hundreds of simulated datasets, based on the experimental data variance and fits direct and competitive measurements in pairs.

14-3-3γ = biological target: T2, 14-3-3γ (Homo sapiens, UniProt P61981); test: biochemical; format: binding
T2 construct: full-length human 14-3-3 constructs with an N-terminal MBP fusion were used; made in house; host or cells: E. coli BL21(DE3)
T2 sequence (P61981 1-247): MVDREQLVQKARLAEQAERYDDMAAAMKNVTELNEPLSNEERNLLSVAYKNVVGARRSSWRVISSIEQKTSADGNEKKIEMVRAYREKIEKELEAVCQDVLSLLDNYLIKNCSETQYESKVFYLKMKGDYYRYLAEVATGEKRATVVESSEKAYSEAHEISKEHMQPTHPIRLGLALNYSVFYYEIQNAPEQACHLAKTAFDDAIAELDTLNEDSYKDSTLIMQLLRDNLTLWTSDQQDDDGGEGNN
Procedure: as §1, §2, §3, §4, §5

14-3-3ε = biological target: T3, 14-3-3ε (Homo sapiens, UniProt P62258); test: biochemical; format: binding
T3 construct: Plasmids containing the cDNAs of the full-length 14-3-3 isoforms ε, γ, and ζ were received; made in house; host or cells: E. coli BL21(DE3)
T3 sequence (P62258 1-255): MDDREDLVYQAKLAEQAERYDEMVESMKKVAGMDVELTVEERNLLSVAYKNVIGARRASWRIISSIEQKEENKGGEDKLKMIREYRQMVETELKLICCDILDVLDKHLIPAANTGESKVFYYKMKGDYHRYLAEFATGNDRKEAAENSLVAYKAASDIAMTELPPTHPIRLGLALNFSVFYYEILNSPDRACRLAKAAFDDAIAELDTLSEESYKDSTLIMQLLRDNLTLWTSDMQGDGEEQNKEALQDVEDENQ
Procedure: as §1, §2, §3, §4, §5

14-3-3ζ = biological target: T4, 14-3-3ζ (Homo sapiens, UniProt P63104); test: biochemical; format: binding
T4 construct: Plasmids containing the cDNAs of the full-length 14-3-3 isoforms ε, γ, and ζ were received; made in house; host or cells: E. coli BL21(DE3)
T4 sequence (P63104 1-245): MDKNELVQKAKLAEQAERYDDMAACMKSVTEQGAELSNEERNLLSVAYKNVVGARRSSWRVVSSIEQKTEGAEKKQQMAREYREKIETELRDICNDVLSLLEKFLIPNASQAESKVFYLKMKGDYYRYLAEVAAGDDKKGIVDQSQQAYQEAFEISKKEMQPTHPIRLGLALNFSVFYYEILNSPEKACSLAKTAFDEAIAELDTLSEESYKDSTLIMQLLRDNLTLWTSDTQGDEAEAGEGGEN
Procedure: as §1, §2, §3, §4, §5

14-3-3η = biological target: T5, 14-3-3η (Homo sapiens, UniProt Q04917); test: biochemical; format: binding
T5 construct: cDNAs encoding other full-length 14-3-3 isoforms β, τ, η, and σ were obtained as codon-optimized; made in house; host or cells: E. coli BL21(DE3)
T5 sequence (Q04917 1-246): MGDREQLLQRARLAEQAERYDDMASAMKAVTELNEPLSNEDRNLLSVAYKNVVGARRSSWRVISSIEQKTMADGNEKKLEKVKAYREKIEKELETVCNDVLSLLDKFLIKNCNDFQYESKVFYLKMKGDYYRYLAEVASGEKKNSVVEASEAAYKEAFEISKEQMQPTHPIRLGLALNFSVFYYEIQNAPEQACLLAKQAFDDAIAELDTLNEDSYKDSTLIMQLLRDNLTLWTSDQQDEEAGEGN
Procedure: as §1, §2, §3, §4, §5

14-3-3σ = biological target: T6, 14-3-3σ (Homo sapiens, UniProt P31947); test: biochemical; format: binding
T6 construct: cDNAs encoding other full-length 14-3-3 isoforms β, τ, η, and σ were obtained as codon-optimized; made in house; host or cells: E. coli BL21(DE3)
T6 sequence (P31947 1-248): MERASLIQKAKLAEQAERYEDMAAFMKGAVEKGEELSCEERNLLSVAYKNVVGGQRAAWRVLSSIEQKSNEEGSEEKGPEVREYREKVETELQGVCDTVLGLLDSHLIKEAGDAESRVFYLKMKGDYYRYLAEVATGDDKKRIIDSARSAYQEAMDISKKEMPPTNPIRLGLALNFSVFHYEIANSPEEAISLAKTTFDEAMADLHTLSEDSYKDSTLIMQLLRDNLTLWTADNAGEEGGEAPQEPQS
Procedure: as §1, §2, §3, §4, §5

14-3-3τ = biological target: T7, 14-3-3τ (Homo sapiens, UniProt P27348); test: biochemical; format: binding
T7 construct: cDNAs encoding other full-length 14-3-3 isoforms β, τ, η, and σ were obtained as codon-optimized; made in house; host or cells: E. coli BL21(DE3)
T7 sequence (P27348 1-245): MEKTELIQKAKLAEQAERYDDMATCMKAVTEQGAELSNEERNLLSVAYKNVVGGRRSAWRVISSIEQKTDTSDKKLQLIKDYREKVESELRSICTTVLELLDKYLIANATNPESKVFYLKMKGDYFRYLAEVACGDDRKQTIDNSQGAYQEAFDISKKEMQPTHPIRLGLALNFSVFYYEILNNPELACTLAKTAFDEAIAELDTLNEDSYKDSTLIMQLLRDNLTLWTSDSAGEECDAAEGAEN
Procedure: as §1, §2, §3, §4, §5

Row | Molecule | Kd (14-3-3 isoforms; 14-3-3β, read-out: Binding affinities (KD) of various 14-3-3-binding motifs, 14-3-3β) [µM] | Kd (14-3-3 isoforms; 14-3-3γ, read-out: Binding affinities (KD) of various 14-3-3-binding motifs, 14-3-3γ) [µM] | Kd (14-3-3 isoforms; 14-3-3ε, read-out: Binding affinities (KD) of various 14-3-3-binding motifs, 14-3-3ε) [µM] | Kd (14-3-3 isoforms; 14-3-3ζ, read-out: Binding affinities (KD) of various 14-3-3-binding motifs, 14-3-3ζ) [µM] | Kd (14-3-3 isoforms; 14-3-3η, read-out: Binding affinities (KD) of various 14-3-3-binding motifs, 14-3-3η) [µM] | Kd (14-3-3 isoforms; 14-3-3σ, read-out: Binding affinities (KD) of various 14-3-3-binding motifs, 14-3-3σ) [µM] | Kd (14-3-3 isoforms; 14-3-3τ, read-out: Binding affinities (KD) of various 14-3-3-binding motifs, 14-3-3τ) [µM] | Kd (14-3-3β) [µM] | Kd (14-3-3γ) [µM] | Kd (14-3-3ε) [µM] | Kd (14-3-3ζ) [µM] | Kd (14-3-3η) [µM] | Kd (14-3-3σ) [µM] | Kd (14-3-3τ) [µM]
1 | C-Raf254-264 (RQRSTSTPNVH; UniProt P04049 254-264, looked up, fragment) | 9.5 | 3.7 | 15.1 | 16.6 | 6.3 | 67.1 | 26.6 |  |  |  |  |  |  | 
2 | CC(C)[C@H](NC(=O)[C@H](C)NC(=O)[C@@H](NC(=O)[C@H](CCC(=O)O)NC(=O)[C@H](CCCNC(=N)N)NC(=O)[C@H](CCCNC(=N)N)NC(=O)[C@H](CCCNC(=N)N)NC(=O)[C@@H]1CCCN1C(=O)[C@H](CCCCN)NC(=O)[C@H](CO)NC(=O)CCC(=O)NCCCOCCOCCOCCCNC(=O)CCCC[C@@H]1SC[C@@H]2NC(=O)N[C@@H]21)[C@@H](C)OP(=O)(O)O)C(=O)O [pHPV35E6T-6R, E-1A] ({X1-Suc}-SKPRRRE[pT]AV-OH) |  |  |  |  |  |  |  | 7.1 ± 0.5 | 3.3 ± 0.2 | 13 ± 2 | 7.3 ± 0.4 | 4.8 ± 0.5 | 18.9 ± 1.9 | 5.8 ± 0.4
